Activity calls are given as the source filed them. The calls are words filed in the database; no cut-off is given here.

For orientation: inhibition means how much of the control response was suppressed. Broadly, the Inhibition is the change of the read-out against control, counted positive when it falls.

For experiment [1], the target named is T1, Prostaglandin G/H synthase 2 (Homo sapiens) (UniProt P35354).
T1 sequence (whole entry): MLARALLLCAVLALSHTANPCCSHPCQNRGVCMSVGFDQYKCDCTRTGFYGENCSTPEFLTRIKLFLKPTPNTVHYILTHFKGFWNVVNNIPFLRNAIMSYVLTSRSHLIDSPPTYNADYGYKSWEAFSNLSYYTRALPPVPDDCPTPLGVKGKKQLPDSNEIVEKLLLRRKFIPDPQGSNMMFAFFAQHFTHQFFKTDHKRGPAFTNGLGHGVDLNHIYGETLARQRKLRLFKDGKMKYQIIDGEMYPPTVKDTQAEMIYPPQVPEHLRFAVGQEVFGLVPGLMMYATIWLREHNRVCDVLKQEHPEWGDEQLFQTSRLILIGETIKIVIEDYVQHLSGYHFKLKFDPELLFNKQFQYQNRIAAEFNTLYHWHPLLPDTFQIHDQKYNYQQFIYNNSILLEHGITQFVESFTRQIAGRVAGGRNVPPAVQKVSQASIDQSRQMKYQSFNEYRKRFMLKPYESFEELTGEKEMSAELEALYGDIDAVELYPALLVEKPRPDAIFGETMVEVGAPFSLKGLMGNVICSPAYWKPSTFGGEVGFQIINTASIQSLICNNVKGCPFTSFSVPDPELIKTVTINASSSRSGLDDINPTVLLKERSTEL
Nature of the experiment: Inhibition of human recombinant COX2 expressed in sf9 cells infected with baculovirus at 10 uM.

Experiment [2] relates to Rattus norvegicus. Kind of experiment: Anti-inflammatory activity in orally dosed Wistar rat assessed as reduction of carrageenan-induced paw edema at 3 mg/kg, po. Type of experiment: functional, organism-based. Details: dose 3 mg/kg. (In general: The carrageenan paw model is a standard test of acute inflammation.)
For experiment [3], the system named is Rattus norvegicus. Nature of the experiment: Anti-inflammatory activity in orally dosed Wistar rat assessed as reduction of carrageenan-induced paw edema. Type of experiment: functional. The conditions noted are these: po, 30 mg/kg.
Experiment [4] deals with Rattus norvegicus. Nature of the experiment: Anti-inflammatory activity in orally dosed Wistar rat assessed as reduction of carrageenan-induced paw edema at 1 mg/kg, po. Type of experiment: functional, organism-based. On the set-up: dose 1 mg/kg.
In experiment [5] the test system is Rattus norvegicus. Kind of experiment: Anti-inflammatory activity in orally dosed Wistar rat assessed as reduction of carrageenan-induced paw edema at 10 mg/kg, po. Type of experiment: functional, organism-based. On the set-up: dose 10 mg/kg.
The target of experiment [6] is Prostaglandin G/H synthase 1 (Ovis aries) (UniProt P05979). Kind of experiment: Inhibition of microsomal COX1 at 10 uM.
Experiment [7] relates to Rattus norvegicus. Kind of experiment: Anti-inflammatory activity in orally dosed Wistar rat assessed as reduction of carrageenan-induced paw edema at 0.3 mg/kg, po. Format: functional.

Prostaglandin G/H synthase 1 (Ovis aries), sequence (P05979 whole entry, looked up): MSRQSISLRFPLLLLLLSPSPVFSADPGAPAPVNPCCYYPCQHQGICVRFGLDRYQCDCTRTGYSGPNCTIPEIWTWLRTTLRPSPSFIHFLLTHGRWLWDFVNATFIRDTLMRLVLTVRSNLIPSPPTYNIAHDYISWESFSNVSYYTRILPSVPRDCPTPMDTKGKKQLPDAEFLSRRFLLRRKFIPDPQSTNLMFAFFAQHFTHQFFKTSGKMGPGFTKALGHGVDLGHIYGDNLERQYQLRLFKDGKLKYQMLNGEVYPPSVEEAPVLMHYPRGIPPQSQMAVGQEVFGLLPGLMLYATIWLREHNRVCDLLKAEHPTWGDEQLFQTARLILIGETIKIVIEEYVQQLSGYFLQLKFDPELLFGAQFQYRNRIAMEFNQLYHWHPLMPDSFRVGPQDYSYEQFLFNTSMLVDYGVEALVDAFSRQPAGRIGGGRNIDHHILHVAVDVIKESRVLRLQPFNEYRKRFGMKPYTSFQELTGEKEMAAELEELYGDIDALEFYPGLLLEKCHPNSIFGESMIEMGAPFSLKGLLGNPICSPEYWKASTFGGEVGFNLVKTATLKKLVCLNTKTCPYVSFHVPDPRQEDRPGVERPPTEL

Consider `CCC(=O)[N-]S(=O)(=O)c1ccc(-n2nc(C(F)(F)F)cc2-c2ccc3c(c2)CCC3)cc1CO.[Na+]`, for which the inhibition in experiment [1] stood at 22%; in experiment [6] it was 0%. For the same molecule, the outcome in the experiment with Rattus norvegicus [2], in the experiment on Rattus norvegicus [4] and with Rattus norvegicus [5] was inactive. The Inhibition in the experiment on Rattus norvegicus [3] was 52%.

As to `CCC(=O)OCc1cc(-n2nc(C(F)(F)F)cc2-c2ccc(SC)cc2)ccc1S(N)(=O)=O`, the inhibition in experiment [1] was found to be 40%; in experiment [6], 0%. The outcome in the experiment with Rattus norvegicus [2], in the experiment on Rattus norvegicus [4] and in the experiment with Rattus norvegicus [5] was inactive. Moreover, the Inhibition in the experiment on Rattus norvegicus [3] stood at 60%.

For `CCC(=O)[N-]S(=O)(=O)c1ccc(-c2c(-c3ccccc3)noc2C)cc1.[Na+]` [PARECOXIB SODIUM], in the experiment on Rattus norvegicus [7], the inhibition at 0.3 mg/kg worked out at 98%.

Source of the values: ChEMBL document CHEMBL1146031, “N-acylated sulfonamide sodium salt: a prodrug of choice for the bifunctional 2-hydroxymethyl-4-(5-phenyl-3-trifluoromethyl-pyrazol-1-yl) benzenesulfonamide class of COX-2 inhibitors” (Bioorg Med Chem Lett, 2006).
